{"source": "paper PMC9405973", "about": "“Altered Conformational Landscape upon Sensing Guanine Nucleotides in a Disease Mutant of Elongation Factor-like 1 (EFL1) GTPase” (Biomolecules, 2022)", "key": {"wild-type Efl1": {"tested_on": "wild-type Efl1", "test": "ITC: binding of guanine nucleotides or Sdo1 to wild-type Efl1 (data of ref 6)", "set-up": "species or system Saccharomyces cerevisiae", "settings": "native protein"}, "Efl1 R1086Q P151L": {"molecular_target": "T1, Efl1 R1086Q P151L (Saccharomyces cerevisiae, UniProt P53893, P151L/R1086Q)", "T1 construct": "made in house; host or cells: Saccharomyces cerevisiae", "T1 sequence (P53893 whole entry P151L/R1086Q)": "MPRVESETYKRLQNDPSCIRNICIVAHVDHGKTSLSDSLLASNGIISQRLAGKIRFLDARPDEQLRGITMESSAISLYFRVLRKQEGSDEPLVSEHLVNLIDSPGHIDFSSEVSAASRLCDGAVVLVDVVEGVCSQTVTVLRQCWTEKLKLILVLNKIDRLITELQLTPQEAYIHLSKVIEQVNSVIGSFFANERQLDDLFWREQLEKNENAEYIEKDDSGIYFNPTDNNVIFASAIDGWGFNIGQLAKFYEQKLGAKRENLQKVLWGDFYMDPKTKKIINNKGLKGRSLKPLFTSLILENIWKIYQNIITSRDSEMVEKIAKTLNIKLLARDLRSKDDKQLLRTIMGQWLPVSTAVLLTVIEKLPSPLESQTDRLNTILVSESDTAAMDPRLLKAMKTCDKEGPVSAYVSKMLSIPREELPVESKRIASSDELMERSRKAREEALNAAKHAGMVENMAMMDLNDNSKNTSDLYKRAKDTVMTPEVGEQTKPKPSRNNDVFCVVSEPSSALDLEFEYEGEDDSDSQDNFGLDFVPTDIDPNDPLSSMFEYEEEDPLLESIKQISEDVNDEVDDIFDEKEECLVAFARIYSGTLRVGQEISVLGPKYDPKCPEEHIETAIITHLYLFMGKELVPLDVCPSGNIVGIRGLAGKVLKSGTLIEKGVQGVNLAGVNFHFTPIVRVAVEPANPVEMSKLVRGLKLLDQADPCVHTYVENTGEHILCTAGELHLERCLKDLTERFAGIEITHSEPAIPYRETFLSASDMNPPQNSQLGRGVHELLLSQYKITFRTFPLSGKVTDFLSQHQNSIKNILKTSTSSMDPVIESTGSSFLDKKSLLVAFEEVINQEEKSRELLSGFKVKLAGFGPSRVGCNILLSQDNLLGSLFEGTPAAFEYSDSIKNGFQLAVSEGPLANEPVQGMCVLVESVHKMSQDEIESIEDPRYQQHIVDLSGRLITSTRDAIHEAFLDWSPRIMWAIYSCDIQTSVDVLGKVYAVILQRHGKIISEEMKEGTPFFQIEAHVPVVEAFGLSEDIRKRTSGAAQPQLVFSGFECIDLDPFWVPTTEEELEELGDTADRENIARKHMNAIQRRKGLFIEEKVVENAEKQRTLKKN", "test": "ITC: binding of GTP to double mutant Efl1 R1086Q P151L", "settings": "+Mg^2+"}}, "note": "“And” between values parts separate entries of the source, which are not always exact repeats. Equal entries are not always repeated."}
{"smiles": "Nc1nc2c(ncn2[C@@H]2O[C@H](COP(=O)(O)OP(=O)(O)OP(=O)(O)O)[C@@H](O)[C@H]2O)c(=O)[nH]1", "note": "[GTP]", "values": [{"measurement": "overall heat-capacity change to drive the protein into ternary complex GTPase•GTP•Sdo1", "setting": "wild-type Efl1", "value": "−950", "unit": "cal mol^−1 K^−1"}, {"measurement": "-TΔSb", "setting": "Efl1 R1086Q P151L; 25 °C", "value": -4.8, "unit": "kcal/mol"}, {"measurement": "ΔGb", "setting": "Efl1 R1086Q P151L; 25 °C", "value": -6.5, "unit": "kcal/mol"}, {"measurement": "ΔHb", "setting": "Efl1 R1086Q P151L; 25 °C", "value": "-1.7 ± 0.1", "unit": "kcal/mol"}, {"measurement": "-TΔSb", "setting": "Efl1 R1086Q P151L; 30 °C", "value": -4.1, "unit": "kcal/mol"}, {"measurement": "Nconfres (number of residues changing conformation, absolute value)", "setting": "Efl1 R1086Q P151L; 30 °C", "value": 19}, {"measurement": "Nconfrotb (number of routable bonds changing conformation, absolute value)", "setting": "Efl1 R1086Q P151L; 30 °C", "value": 19}, {"measurement": "ΔCpconf", "setting": "Efl1 R1086Q P151L; 30 °C", "value": "−195", "unit": "cal mol^−1 K^−1"}, {"measurement": "ΔCprb", "setting": "Efl1 R1086Q P151L; 30 °C", "value": "−25", "unit": "cal mol^−1 K^−1"}, {"measurement": "ΔGb", "setting": "Efl1 R1086Q P151L; 30 °C", "value": -6.6, "unit": "kcal/mol"}, {"measurement": "ΔHb", "setting": "Efl1 R1086Q P151L; 30 °C", "value": "-2.5 ± 0.1", "unit": "kcal/mol"}, {"measurement": "ΔSb", "setting": "Efl1 R1086Q P151L; 30 °C", "value": 13, "unit": "cal mol^−1 K^−1"}, {"measurement": "ΔSconf", "setting": "Efl1 R1086Q P151L; 30 °C", "value": "−31", "unit": "cal mol^−1 K^−1"}, {"measurement": "ΔSsolv", "setting": "Efl1 R1086Q P151L; 30 °C", "value": 53, "unit": "cal mol^−1 K^−1"}, {"measurement": "−ΔASAconf", "setting": "Efl1 R1086Q P151L; 30 °C", "value": 875, "unit": "Å^2"}, {"measurement": "-TΔSb", "setting": "Efl1 R1086Q P151L; 35 °C", "value": -2.8, "unit": "kcal/mol"}, {"measurement": "ΔGb", "setting": "Efl1 R1086Q P151L; 35 °C", "value": -6.7, "unit": "kcal/mol"}, {"measurement": "ΔHb", "setting": "Efl1 R1086Q P151L; 35 °C", "value": "-3.9 ± 0.1", "unit": "kcal/mol"}, {"measurement": "ΔCpb", "setting": "Efl1 R1086Q P151L; from ΔHb at 25–35 °C", "value": "−220 ± 35 cal mol^−1 K^−1 and −220 cal mol^−1 K^−1"}, {"measurement": "Kd", "setting": "Efl1 R1086Q P151L; 25 °C", "value": "18 ± 3", "unit": "µM"}, {"measurement": "Kd", "setting": "Efl1 R1086Q P151L; 30 °C", "value": "17 ± 2", "unit": "µM"}, {"measurement": "Kd", "setting": "Efl1 R1086Q P151L; 35 °C", "value": "18 ± 2", "unit": "µM"}]}
